# Assay results published in ChEMBL document CHEMBL5724914, “Linking interpersonal differences in gut microbiota composition and drug biotransformation activity” (2024).
# Tests used:
# [1] = (§1) The drug is tested on Z-023 corresponding to metagenome with ENA study accession number: PRJEB37062 and ENA sample accession number: ERS12561822 for biotransformation under anaerobic condition. The drug concentrations were measured over 9 timepoints collected between 0 and 24 hours of incubation by liquid-chromatography-coupled mass spectrometry (LC–MS); settings: 2 µM
# [2] = as §1, with “Z-021” for “Z-023”, “ERS12561820” for “ERS12561822”; settings: 2 µM
# [3] = (§2) The drug is tested on Z-019 corresponding to rat gut metagenome with ENA study accession number: PRJEB37062 and ENA sample accession number: ERS12561818 for biotransformation under anaerobic condition. The drug concentrations were measured over 9 timepoints collected between 0 and 24 hours of incubation by liquid-chromatography-coupled mass spectrometry (LC–MS); settings: 2 µM
# [4] = as §2, with “on Z-016” for “on Z-019”, “to mouse” for “to rat”, “number: ERS12561815” for “number: ERS12561818”; settings: 2 µM
# [5] = as §1, with “Z-010” for “Z-023”, “ERS12561810” for “ERS12561822”; settings: 2 µM
# [6] = as §2, with “on WLS-170” for “on Z-019”, “to human” for “to rat”, “number: ERS12561762” for “number: ERS12561818”; settings: 2 µM
# [7] = as §2, with “on WLS-077” for “on Z-019”, “to human” for “to rat”, “number: ERS12561750” for “number: ERS12561818”; settings: 2 µM
# [8] = as §2, with “on WLS-007” for “on Z-019”, “to human” for “to rat”, “number: ERS12561742” for “number: ERS12561818”; settings: 2 µM
# [9] = human gut metagenome, 24 h, 2 µM
# [10] = human gut metagenome, 24 h, 2 µM; remark: listed apart in the source
# [11] = human gut metagenome, 24 h, 2 µM; remark: listed apart in the source
# [12] = human gut metagenome, 24 h, 2 µM; remark: listed apart in the source
# [13] = human gut metagenome, 24 h, 2 µM; remark: listed apart in the source
# [14] = human gut metagenome, 24 h, 2 µM; remark: listed apart in the source
# [15] = human gut metagenome, 24 h, 2 µM; remark: listed apart in the source
# [16] = human gut metagenome, 24 h, 2 µM; remark: listed apart in the source
# [17] = human gut metagenome, 24 h, 2 µM; remark: listed apart in the source
# [18] = human gut metagenome, 24 h, 2 µM; remark: listed apart in the source
# [19] = human gut metagenome, 24 h, 2 µM; remark: listed apart in the source
# [20] = human gut metagenome, 24 h, 2 µM; remark: listed apart in the source
# Note: call rule not given here.
compound,measurement,setting,value
C[C@@H](c1ncncc1F)[C@](O)(Cn1cncn1)c1ccc(F)cc1F [VORICONAZOLE],Bacterial Biotransformation,[1],Compound metabolized
same,Bacterial Biotransformation,[2],Compound NOT metabolized
same,Bacterial Biotransformation,[3],Compound NOT metabolized
same,Bacterial Biotransformation,[4],Compound metabolized
same,Bacterial Biotransformation,[5],Compound metabolized
same,Bacterial Biotransformation,[6],Compound metabolized
same,Bacterial Biotransformation,[7],Compound metabolized
same,Bacterial Biotransformation,[8],Compound metabolized
same,Bacterial Biotransformation,[9],Compound metabolized
same,Bacterial Biotransformation,[10],Compound metabolized
same,Bacterial Biotransformation,[11],Compound metabolized
same,Bacterial Biotransformation,[12],Compound metabolized
same,Bacterial Biotransformation,[13],Compound metabolized
same,Bacterial Biotransformation,[14],Compound metabolized
same,Bacterial Biotransformation,[15],Compound metabolized
same,Bacterial Biotransformation,[16],Compound metabolized
same,Bacterial Biotransformation,[17],Compound metabolized
same,Bacterial Biotransformation,[18],Compound metabolized
same,Bacterial Biotransformation,[19],Compound metabolized
same,Bacterial Biotransformation,[20],Compound metabolized
CC(CCc1ccccc1)NCC(O)c1ccc(O)c(C(N)=O)c1 (centres undefined) [LABETALOL],Bacterial Biotransformation,[1],Compound metabolized
same,Bacterial Biotransformation,[2],Compound NOT metabolized
same,Bacterial Biotransformation,[3],Compound NOT metabolized
same,Bacterial Biotransformation,[4],Compound NOT metabolized
same,Bacterial Biotransformation,[5],Compound NOT metabolized
same,Bacterial Biotransformation,[6],Compound NOT metabolized
same,Bacterial Biotransformation,[7],Compound NOT metabolized
same,Bacterial Biotransformation,[8],Compound NOT metabolized
same,Bacterial Biotransformation,[9],Compound NOT metabolized
same,Bacterial Biotransformation,[10],Compound NOT metabolized
same,Bacterial Biotransformation,[11],Compound NOT metabolized
same,Bacterial Biotransformation,[12],Compound NOT metabolized
same,Bacterial Biotransformation,[13],Compound NOT metabolized
same,Bacterial Biotransformation,[14],Compound NOT metabolized
same,Bacterial Biotransformation,[15],Compound NOT metabolized
same,Bacterial Biotransformation,[16],Compound NOT metabolized
same,Bacterial Biotransformation,[17],Compound NOT metabolized
same,Bacterial Biotransformation,[18],Compound NOT metabolized
same,Bacterial Biotransformation,[19],Compound NOT metabolized
same,Bacterial Biotransformation,[20],Compound NOT metabolized
O=C(NC(Cc1cc(=O)[nH]c2ccccc12)C(=O)O)c1ccc(Cl)cc1 (centres undefined) [REBAMIPIDE],Bacterial Biotransformation,[1],Compound metabolized
same,Bacterial Biotransformation,[2],Compound metabolized
same,Bacterial Biotransformation,[3],Compound NOT metabolized
same,Bacterial Biotransformation,[4],Compound NOT metabolized
same,Bacterial Biotransformation,[5],Compound NOT metabolized
same,Bacterial Biotransformation,[6],Compound NOT metabolized
same,Bacterial Biotransformation,[7],Compound NOT metabolized
same,Bacterial Biotransformation,[8],Compound NOT metabolized
same,Bacterial Biotransformation,[9],Compound metabolized
same,Bacterial Biotransformation,[10],Compound NOT metabolized
same,Bacterial Biotransformation,[11],Compound NOT metabolized
same,Bacterial Biotransformation,[12],Compound NOT metabolized
same,Bacterial Biotransformation,[13],Compound NOT metabolized
same,Bacterial Biotransformation,[14],Compound NOT metabolized
same,Bacterial Biotransformation,[15],Compound NOT metabolized
same,Bacterial Biotransformation,[16],Compound NOT metabolized
same,Bacterial Biotransformation,[17],Compound NOT metabolized
same,Bacterial Biotransformation,[18],Compound NOT metabolized
same,Bacterial Biotransformation,[19],Compound NOT metabolized
same,Bacterial Biotransformation,[20],Compound NOT metabolized
OC(c1cc(C(F)(F)F)nc2c(C(F)(F)F)cccc12)C1CCCCN1 (centres undefined) [MEFLOQUINE],Bacterial Biotransformation,[1],Compound metabolized
same,Bacterial Biotransformation,[2],Compound metabolized
same,Bacterial Biotransformation,[3],Compound NOT metabolized
same,Bacterial Biotransformation,[4],Compound NOT metabolized
same,Bacterial Biotransformation,[5],Compound metabolized
same,Bacterial Biotransformation,[6],Compound metabolized
same,Bacterial Biotransformation,[7],Compound metabolized
same,Bacterial Biotransformation,[8],Compound NOT metabolized
same,Bacterial Biotransformation,[9],Compound metabolized
same,Bacterial Biotransformation,[10],Compound NOT metabolized
same,Bacterial Biotransformation,[11],Compound NOT metabolized
same,Bacterial Biotransformation,[12],Compound metabolized
same,Bacterial Biotransformation,[13],Compound NOT metabolized
same,Bacterial Biotransformation,[14],Compound NOT metabolized
same,Bacterial Biotransformation,[15],Compound metabolized
same,Bacterial Biotransformation,[16],Compound metabolized
same,Bacterial Biotransformation,[17],Compound metabolized
same,Bacterial Biotransformation,[18],Compound metabolized
same,Bacterial Biotransformation,[19],Compound metabolized
same,Bacterial Biotransformation,[20],Compound NOT metabolized
COc1ccccc1OCCNCC(O)COc1cccc2[nH]c3ccccc3c12 (centres undefined) [CARVEDILOL],Bacterial Biotransformation,[1],Compound metabolized
same,Bacterial Biotransformation,[2],Compound NOT metabolized
same,Bacterial Biotransformation,[3],Compound NOT metabolized
same,Bacterial Biotransformation,[4],Compound NOT metabolized
same,Bacterial Biotransformation,[5],Compound metabolized
same,Bacterial Biotransformation,[6],Compound metabolized
same,Bacterial Biotransformation,[7],Compound metabolized
same,Bacterial Biotransformation,[8],Compound NOT metabolized
same,Bacterial Biotransformation,[9],Compound metabolized
same,Bacterial Biotransformation,[10],Compound metabolized
same,Bacterial Biotransformation,[11],Compound NOT metabolized
same,Bacterial Biotransformation,[12],Compound NOT metabolized
same,Bacterial Biotransformation,[13],Compound NOT metabolized
same,Bacterial Biotransformation,[14],Compound NOT metabolized
same,Bacterial Biotransformation,[15],Compound metabolized
same,Bacterial Biotransformation,[16],Compound metabolized
same,Bacterial Biotransformation,[17],Compound metabolized
same,Bacterial Biotransformation,[18],Compound metabolized
same,Bacterial Biotransformation,[19],Compound metabolized
same,Bacterial Biotransformation,[20],Compound metabolized
c1ccc2[nH]c(-c3cscn3)nc2c1 [THIABENDAZOLE],Bacterial Biotransformation,[1],Compound NOT metabolized
same,Bacterial Biotransformation,[2],Compound NOT metabolized
same,Bacterial Biotransformation,[3],Compound NOT metabolized
same,Bacterial Biotransformation,[4],Compound NOT metabolized
same,Bacterial Biotransformation,[5],Compound NOT metabolized
same,Bacterial Biotransformation,[6],Compound NOT metabolized
same,Bacterial Biotransformation,[7],Compound NOT metabolized
same,Bacterial Biotransformation,[8],Compound NOT metabolized
same,Bacterial Biotransformation,[9],Compound NOT metabolized
same,Bacterial Biotransformation,[10],Compound NOT metabolized
same,Bacterial Biotransformation,[11],Compound NOT metabolized
same,Bacterial Biotransformation,[12],Compound NOT metabolized
same,Bacterial Biotransformation,[13],Compound NOT metabolized
same,Bacterial Biotransformation,[14],Compound NOT metabolized
same,Bacterial Biotransformation,[15],Compound NOT metabolized
same,Bacterial Biotransformation,[16],Compound NOT metabolized
same,Bacterial Biotransformation,[17],Compound metabolized
same,Bacterial Biotransformation,[18],Compound metabolized
same,Bacterial Biotransformation,[19],Compound NOT metabolized
same,Bacterial Biotransformation,[20],Compound NOT metabolized
C[N+]12CCC(CC1)C(OC(=O)C(O)(c1ccccc1)c1ccccc1)C2.[Br-] (centres undefined) [CLIDINIUM BROMIDE],Bacterial Biotransformation,[1],Compound metabolized
same,Bacterial Biotransformation,[2],Compound NOT metabolized
same,Bacterial Biotransformation,[3],Compound NOT metabolized
same,Bacterial Biotransformation,[4],Compound NOT metabolized
same,Bacterial Biotransformation,[5],Compound metabolized
same,Bacterial Biotransformation,[6],Compound metabolized
same,Bacterial Biotransformation,[7],Compound NOT metabolized
same,Bacterial Biotransformation,[8],Compound NOT metabolized
same,Bacterial Biotransformation,[9],Compound NOT metabolized
same,Bacterial Biotransformation,[10],Compound NOT metabolized
same,Bacterial Biotransformation,[11],Compound NOT metabolized
same,Bacterial Biotransformation,[12],Compound NOT metabolized
same,Bacterial Biotransformation,[13],Compound NOT metabolized
same,Bacterial Biotransformation,[14],Compound NOT metabolized
same,Bacterial Biotransformation,[15],Compound NOT metabolized
same,Bacterial Biotransformation,[16],Compound NOT metabolized
same,Bacterial Biotransformation,[17],Compound metabolized
same,Bacterial Biotransformation,[18],Compound NOT metabolized
same,Bacterial Biotransformation,[19],Compound NOT metabolized
same,Bacterial Biotransformation,[20],Compound metabolized
O=C1CC2(CCCC2)CC(=O)N1CCCCN1CCN(c2ncccn2)CC1 [BUSPIRONE],Bacterial Biotransformation,[1],Compound metabolized
same,Bacterial Biotransformation,[2],Compound NOT metabolized
same,Bacterial Biotransformation,[3],Compound NOT metabolized
same,Bacterial Biotransformation,[4],Compound NOT metabolized
same,Bacterial Biotransformation,[5],Compound metabolized
same,Bacterial Biotransformation,[6],Compound metabolized
same,Bacterial Biotransformation,[7],Compound NOT metabolized
same,Bacterial Biotransformation,[8],Compound NOT metabolized
same,Bacterial Biotransformation,[9],Compound NOT metabolized
same,Bacterial Biotransformation,[10],Compound metabolized
same,Bacterial Biotransformation,[11],Compound metabolized
same,Bacterial Biotransformation,[12],Compound NOT metabolized
same,Bacterial Biotransformation,[13],Compound NOT metabolized
same,Bacterial Biotransformation,[14],Compound metabolized
same,Bacterial Biotransformation,[15],Compound NOT metabolized
same,Bacterial Biotransformation,[16],Compound metabolized
same,Bacterial Biotransformation,[17],Compound metabolized
same,Bacterial Biotransformation,[18],Compound metabolized
same,Bacterial Biotransformation,[19],Compound metabolized
same,Bacterial Biotransformation,[20],Compound metabolized
CC(=O)OCC(=O)NCCCOc1cccc(CN2CCCCC2)c1 [ROXATIDINE ACETATE],Bacterial Biotransformation,[1],Compound metabolized
same,Bacterial Biotransformation,[2],Compound metabolized
same,Bacterial Biotransformation,[3],Compound NOT metabolized
same,Bacterial Biotransformation,[4],Compound metabolized
same,Bacterial Biotransformation,[5],Compound metabolized
same,Bacterial Biotransformation,[7],Compound metabolized
same,Bacterial Biotransformation,[8],Compound metabolized
same,Bacterial Biotransformation,[9],Compound metabolized
same,Bacterial Biotransformation,[10],Compound metabolized
same,Bacterial Biotransformation,[11],Compound metabolized
same,Bacterial Biotransformation,[12],Compound metabolized
same,Bacterial Biotransformation,[13],Compound metabolized
same,Bacterial Biotransformation,[14],Compound NOT metabolized
same,Bacterial Biotransformation,[15],Compound metabolized
same,Bacterial Biotransformation,[16],Compound metabolized
same,Bacterial Biotransformation,[17],Compound metabolized
same,Bacterial Biotransformation,[18],Compound metabolized
same,Bacterial Biotransformation,[19],Compound metabolized
same,Bacterial Biotransformation,[20],Compound metabolized
